# Assay results from US5519163A, “Inhibitors of phosphoinositide-specific phospholipase C” (Merck & Co., Inc., priority 1993, dated 1996).
# Target: T1, PLCγ1 (Rattus norvegicus, UniProt P10686)
# T1 construct: made in house; host or cells: E. coli BL21 (DE3), plasmid pT5T-PLC4 (ATCC 69421)
# T1 sequence (P10686 with tags, fused parts or gaps): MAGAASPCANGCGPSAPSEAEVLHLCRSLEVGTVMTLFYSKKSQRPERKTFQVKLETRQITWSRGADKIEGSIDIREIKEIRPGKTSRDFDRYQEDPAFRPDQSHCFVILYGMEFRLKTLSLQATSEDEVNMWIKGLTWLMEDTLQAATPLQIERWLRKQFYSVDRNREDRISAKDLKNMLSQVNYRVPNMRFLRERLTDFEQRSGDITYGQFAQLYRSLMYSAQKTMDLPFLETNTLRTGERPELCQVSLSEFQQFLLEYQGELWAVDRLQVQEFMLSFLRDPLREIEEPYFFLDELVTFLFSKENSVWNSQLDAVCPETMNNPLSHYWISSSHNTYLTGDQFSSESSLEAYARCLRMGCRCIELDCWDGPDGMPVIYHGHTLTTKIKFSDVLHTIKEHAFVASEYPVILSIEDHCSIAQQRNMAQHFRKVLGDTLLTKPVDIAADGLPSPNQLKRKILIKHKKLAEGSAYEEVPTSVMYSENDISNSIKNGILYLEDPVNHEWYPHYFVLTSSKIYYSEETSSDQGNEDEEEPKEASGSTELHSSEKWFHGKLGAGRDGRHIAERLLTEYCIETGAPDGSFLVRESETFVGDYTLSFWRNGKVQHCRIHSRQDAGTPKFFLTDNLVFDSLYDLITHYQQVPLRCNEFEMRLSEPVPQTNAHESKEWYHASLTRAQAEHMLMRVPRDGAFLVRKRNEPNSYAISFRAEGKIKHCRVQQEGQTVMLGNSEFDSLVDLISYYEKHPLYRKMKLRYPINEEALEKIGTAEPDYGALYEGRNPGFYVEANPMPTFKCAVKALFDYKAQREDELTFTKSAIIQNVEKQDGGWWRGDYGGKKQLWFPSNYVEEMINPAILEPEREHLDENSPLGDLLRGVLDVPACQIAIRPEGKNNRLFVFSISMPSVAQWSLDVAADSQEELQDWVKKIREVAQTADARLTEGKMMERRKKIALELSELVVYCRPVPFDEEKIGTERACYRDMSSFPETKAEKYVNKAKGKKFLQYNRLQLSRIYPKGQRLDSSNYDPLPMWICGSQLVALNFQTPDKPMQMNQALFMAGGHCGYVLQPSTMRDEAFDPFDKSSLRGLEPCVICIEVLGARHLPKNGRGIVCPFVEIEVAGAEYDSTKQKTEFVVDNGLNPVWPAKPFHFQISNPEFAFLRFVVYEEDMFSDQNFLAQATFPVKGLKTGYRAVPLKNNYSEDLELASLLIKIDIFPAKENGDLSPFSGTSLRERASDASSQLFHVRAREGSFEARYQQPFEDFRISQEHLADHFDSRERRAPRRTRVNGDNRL
# Assay: Inhibition of purified recombinant PLCγ1 ([3H]-phosphatidyl inositol hydrolysis)
# Assay type: biochemical
# Settings: PLCγ1, 30° C., phosphatidyl inositol substrate; Tables 1 and 2
# Description: Subcloning of the PLCγ Coding Sequence. Rat brain cDNA is synthesized using rat brain poly(A)RNA as template by literature protocol (Sanbrook, J. et al., Molecular Cloning: A Laboratry Manual, Cold Spring Harbor Laboratory Press, Cold Spring Harbor, N.Y.). From the published cDNA sequence of rat brain PLCγ1 (Suh, P.-G., Ryu, S. H., Moon, K. H., Suh, H. W., & Rhee, S. G. (1988) Proc. Natl. Acad. Sci. USA 85, 5419-5423), PCR primers, one which contains a BamHI restriction site upstream of the sequence complementary to the 5' end of the PLCγ1 gene (primer 01), and the other one which contains a HindIII site downsteam of the 3' end of the PLCγ gene (primer 04), were synthesized. Carrying out the PCR using these primers (01 and 04) with the above mentioned rat brain cDNA as template, a DNA fragment with the entire rat brain PLCγ1 coding sequence, flanked by a 5' BamHI site and a 3' HindIII site, is generated. This BamHI-HindIII fragment containing the coding sequence of PLCγ was subcloned into pBSII(S/K)+, generating pPLC1. The rest of the manipulations were accomplished using PCR to generate the appropriate DNA fragment. […]
row,Compound,IC50
1,O=P(O)(O)C(O)c1ccc(Oc2ccccc2)cc1 (stereo not shown) [reference compound],> 300 µM

# System: PLCβ
# Assay: Inhibition of PLCβ purified from bovine brain (assay mixture as in Example 12)
# Assay type: biochemical
# Settings: PLCβ from bovine brain substituted for PLCγ; Tables 3 and 4
# Procedure: Assay of purified PLCγ1 activitiy. Activity of the purified PLCγ1 was assayed at 30° C. Reactions were never allowed to proceed to more than 10% completion based on the limiting substrate. A typical reaction contained the following: 50 mM HEPES pH7.5, 0.1% Deoxycholate, 3 mM CaCl2, 1 mM EGTA, 0.1 mM DTT with phosphatidyl inositol (1-1000 μM) (PI) and 0.02 uCi [^3 H]-phosphatidyl inositol (PI) as substrate. The phospholipid components were dried under a gentle stream of nitrogen and resuspended in assay buffer. The substrate mix is then vortexed and sonicated (10 sec. with probe sonicator) to disperse the lipid and form micelles. After thermally preequilibrating the assay mixture in the absence of enzyme, the reaction was initiated by adding PLCγ1. Reactions containing 0.2 ml aliquots were terminated by addition of 1/4 volume 1N HCl, 5 mM EGTA and transferred to an ice bath. The quenched reactions are then filtered through a Q sepharose (Pharmacia) column. To prepare the Q sepharose column 1 ml of Q Sepharose slurry is added to a disposable plastic column. The resin is equilibrated by passing through 20 ml of 10 mM NH4 H2 PO4, pH 3.5. The quenched reaction, typically 200 μl, is applied to the column and 3 ml of 10 mM NH4 H2 PO4, pH 3.5 is added, the flow through from this step is collected in a scintillation vial, mixed with 10 ml of scintillation fluid and counted in a Beckman LS3801 scintillation counter.
# PLC-β are obtained as described by S. G. Rhee et al., Meth. Enzym., 197:502-511 (1991). Specifically PLC-δ is purified from the cytosolic fraction of bovine brains, while PLC-β is mainly obtained from the particulate fraction. However, since the particulate and cytosolic forms of PLC-β are identical with respect to amino acid sequence, PLC-β-containing fractions pooled during the purification of the cytosolic PLC-δ are combined with the PLC-β fraction from the particulate fraction. A total of 36 bovine brains are used for the purification. Twelve brains are processed at one time.
# Step 8: Ion-Exchange Chromatography of PLC-β on DEAE-Cellulose. Because of turbidity, the combined protein solution from Steps 2 and 3 cannot be chromatographed on a DEAE-cellulose column directly. Therefore, two stages of DEAE-cellulose chromatography, a batch procedure followed by a column step, are employed. In the batch step, all of the combined proteins are absorbed on 2 liters of DEAE-cellulose equilibrated with 20 mM Tris-HCl, pH 7.6, containing 5 mM EGTA and 0.1 mM DTT. The DEAE-cellulose slurry is stirred and then collected in a 4-liter sintered glass (coarse) filter funnel. The DEAE-cellulose is washed with the equilibration buffer until it is free of turbid lipid materials and unbound protein. For the column procedure, the washed DEAE-cellulose is removed from the filter funnel, mixed with the equilibration buffer, and poured onto a column already containing a 10 cm high bed of equilibrated DEAE-cellulose (final dimension, 8×45 cm). The column is eluted at a flow rate of 8 ml/min with an 8-liter linear gradient from 0 to 300 mM KCl buffer containing 50 mM Tris-HCl, pH 7.6, 1 mM EGTA, and 0.1 mM DTT. The activity peak is eluted at a KCl concentration of 110 mM. The peak fractions (600 ml) are pooled.
# Step 9: Heparin-Agarose Chromatography of PLC-β. The pooled fraction from Step 8 (600 ml) is applied to a heparin-agarose column (5×25 cm) equilibrated with 20 mM HEPES, pH 7.0, 100 mM NaCl, 0.1 mM DTT, and 1 mM EGTA. The column is eluted with a linear gradient from 100 to 500 mM NaCl in 1.5 liters of equilibrium buffer. Peak fractions (310 ml) are pooled and concentrated on an Amicon filter to 27 ml.
# Step 10: Reversed-Phase Chromatography of PLC-β on TSK Phenyl-5-PW. Solid KCl is added to the concentrated fractions from Step 9 to give a concentration of 3M, and the mixtures are centrifuged to remove denatured proteins. […]
row,Compound,IC50
1,"CCc1cccc(Oc2ccc(C(O)P(=O)(O)O)cc2)c1 (stereo not shown) [Example 10, 1-Hydroxy-1-(4-(3-ethylphenoxy)phenyl)methylphosphonic acid]",74 µM
2,"O=P(O)(O)C(O)c1cccc(Oc2ccccc2)c1 (stereo not shown) [Example 2, 1-Hydroxy-1-(3-phenoxyphenyl)methylphosphonic acid]",> 300 µM
3,"O=P(O)(O)C(O)c1cccc(Oc2ccc(Cl)cc2)c1 (stereo not shown) [Example 4, 1-Hydroxy-1-(3-(4-chlorophenoxy)phenyl)methylphosphonic acid]",65 µM
4,"O=P(O)(O)C(O)c1cccc(Oc2cccc(Cl)c2)c1 (stereo not shown) [Example 1, 1-Hydroxy-1-(3-(3-chlorophenoxy)phenyl)methylphosphonic acid]",24 µM
5,"COc1cccc(Oc2ccc(C(O)P(=O)(O)O)cc2)c1 (stereo not shown) [Example 11, 1-Hydroxy-1-(4-(3-methoxyphenoxy)phenyl)methylphosphonic acid]",11 µM
6,"COc1ccc(Oc2cccc(C(O)P(=O)(O)O)c2)cc1 (stereo not shown) [Example 6, 1-Hydroxy-1-(3-(4-methoxyphenoxy)phenyl)methylphosphonic acid]",717 µM
7,O=P(O)(O)C(O)c1ccc(Oc2ccccc2)cc1 (stereo not shown) [reference compound],> 300 µM
8,"O=P(O)(O)C(O)c1ccc(Oc2cccc(Cl)c2)cc1 (stereo not shown) [Example 9, 1-Hydroxy-1-(4-(3-chlorophenoxy)phenyl)methylphosphonic acid]",9 µM
9,"O=P(O)(O)C(O)c1cccc(Oc2ccc(O)cc2)c1 (stereo not shown) [Example 8, 1-Hydroxy-1-(3-(4-hydroxyphenoxy)phenyl)methylphosphonic acid]",7 µM
10,"O=P(O)(O)C(O)c1cccc(Oc2ccc(Cl)c(Cl)c2)c1 (stereo not shown) [Example 3, 1-Hydroxy-1-(3-(3,4-dichlorophenoxy)phenyl)methylphosphonic acid]",110 µM
11,"Cc1ccc(Oc2cccc(C(O)P(=O)(O)O)c2)cc1 (stereo not shown) [Example 7, 1-Hydroxy-1-(3-(4-methylphenoxy)phenyl)methylphosphonic acid]",31 µM
12,"O=P(O)(O)C(O)c1cccc(Oc2ccccc2Cl)c1 (stereo not shown) [Example 5, 1-Hydroxy-1-(3-(2-chlorophenoxy)phenyl)methylphosphonic acid]",38 µM
